Data taken from ChEMBL document CHEMBL5291721, “A preclinical secondary pharmacology resource illuminates target-adverse drug reaction associations of marketed drugs” (Nat Commun, 2023).

Legend:
[1] = target: T1, Alpha-1A adrenergic receptor (Homo sapiens, UniProt P35348)
T1 sequence (P35348 whole entry): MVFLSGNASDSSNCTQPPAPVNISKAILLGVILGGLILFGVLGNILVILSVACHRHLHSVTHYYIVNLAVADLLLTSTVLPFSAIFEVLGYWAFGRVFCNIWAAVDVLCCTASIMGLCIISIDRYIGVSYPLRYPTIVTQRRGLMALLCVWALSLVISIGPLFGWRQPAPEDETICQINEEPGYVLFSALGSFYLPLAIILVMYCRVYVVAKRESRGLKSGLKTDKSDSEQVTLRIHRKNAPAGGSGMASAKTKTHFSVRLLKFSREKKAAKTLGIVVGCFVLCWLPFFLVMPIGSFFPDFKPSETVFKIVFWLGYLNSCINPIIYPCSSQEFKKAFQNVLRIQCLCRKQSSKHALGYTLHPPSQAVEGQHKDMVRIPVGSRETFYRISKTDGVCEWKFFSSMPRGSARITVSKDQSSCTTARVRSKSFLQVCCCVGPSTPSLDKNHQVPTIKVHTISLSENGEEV

[2] = target: T2, Alpha-2A adrenergic receptor (Homo sapiens, UniProt P08913); type: functional, cell-based
T2 sequence (P08913 whole entry): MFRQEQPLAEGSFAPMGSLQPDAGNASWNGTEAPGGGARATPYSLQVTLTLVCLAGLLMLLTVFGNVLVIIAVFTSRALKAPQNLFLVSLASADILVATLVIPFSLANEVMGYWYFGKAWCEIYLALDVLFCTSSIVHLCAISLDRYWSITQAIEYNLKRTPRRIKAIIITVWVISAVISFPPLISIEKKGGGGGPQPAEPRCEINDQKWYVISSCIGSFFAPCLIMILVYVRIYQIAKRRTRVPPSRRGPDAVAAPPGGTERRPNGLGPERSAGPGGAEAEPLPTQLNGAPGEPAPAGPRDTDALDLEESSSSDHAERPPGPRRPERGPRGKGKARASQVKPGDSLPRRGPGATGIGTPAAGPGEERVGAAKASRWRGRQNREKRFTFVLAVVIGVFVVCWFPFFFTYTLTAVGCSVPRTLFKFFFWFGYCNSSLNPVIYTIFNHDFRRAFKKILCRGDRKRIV

[3] = target: T3, Type-1 angiotensin II receptor (Homo sapiens, UniProt P30556)
T3 sequence (P30556 whole entry): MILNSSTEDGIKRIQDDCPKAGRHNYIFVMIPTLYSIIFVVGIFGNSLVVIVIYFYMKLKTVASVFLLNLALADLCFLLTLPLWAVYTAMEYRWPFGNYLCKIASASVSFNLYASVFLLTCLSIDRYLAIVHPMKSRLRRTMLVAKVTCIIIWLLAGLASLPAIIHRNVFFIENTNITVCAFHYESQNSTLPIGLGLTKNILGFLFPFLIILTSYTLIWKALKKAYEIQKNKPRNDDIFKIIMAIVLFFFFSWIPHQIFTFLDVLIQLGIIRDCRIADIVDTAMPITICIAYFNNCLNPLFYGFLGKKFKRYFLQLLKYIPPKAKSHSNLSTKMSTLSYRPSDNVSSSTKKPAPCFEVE

[4] = target: T4, Muscarinic acetylcholine receptor M2 (Homo sapiens, UniProt P08172); type: functional, cell-based
T4 sequence (P08172 whole entry): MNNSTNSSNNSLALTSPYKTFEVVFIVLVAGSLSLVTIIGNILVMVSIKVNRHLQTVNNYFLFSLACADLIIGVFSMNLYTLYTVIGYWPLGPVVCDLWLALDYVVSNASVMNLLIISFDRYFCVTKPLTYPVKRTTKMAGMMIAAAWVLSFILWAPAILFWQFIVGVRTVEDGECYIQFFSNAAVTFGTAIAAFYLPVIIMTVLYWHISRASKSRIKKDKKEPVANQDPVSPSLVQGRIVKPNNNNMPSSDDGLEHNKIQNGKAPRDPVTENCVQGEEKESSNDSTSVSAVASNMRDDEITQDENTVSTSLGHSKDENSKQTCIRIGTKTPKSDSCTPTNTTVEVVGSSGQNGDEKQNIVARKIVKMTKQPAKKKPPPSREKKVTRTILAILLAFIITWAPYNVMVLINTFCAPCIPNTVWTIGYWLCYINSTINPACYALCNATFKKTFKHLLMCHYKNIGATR

[5] = target: Neuronal acetylcholine receptor subunit alpha-4 (Homo sapiens, UniProt P43681)
Sequence of Neuronal acetylcholine receptor subunit alpha-4 (P43681 whole entry): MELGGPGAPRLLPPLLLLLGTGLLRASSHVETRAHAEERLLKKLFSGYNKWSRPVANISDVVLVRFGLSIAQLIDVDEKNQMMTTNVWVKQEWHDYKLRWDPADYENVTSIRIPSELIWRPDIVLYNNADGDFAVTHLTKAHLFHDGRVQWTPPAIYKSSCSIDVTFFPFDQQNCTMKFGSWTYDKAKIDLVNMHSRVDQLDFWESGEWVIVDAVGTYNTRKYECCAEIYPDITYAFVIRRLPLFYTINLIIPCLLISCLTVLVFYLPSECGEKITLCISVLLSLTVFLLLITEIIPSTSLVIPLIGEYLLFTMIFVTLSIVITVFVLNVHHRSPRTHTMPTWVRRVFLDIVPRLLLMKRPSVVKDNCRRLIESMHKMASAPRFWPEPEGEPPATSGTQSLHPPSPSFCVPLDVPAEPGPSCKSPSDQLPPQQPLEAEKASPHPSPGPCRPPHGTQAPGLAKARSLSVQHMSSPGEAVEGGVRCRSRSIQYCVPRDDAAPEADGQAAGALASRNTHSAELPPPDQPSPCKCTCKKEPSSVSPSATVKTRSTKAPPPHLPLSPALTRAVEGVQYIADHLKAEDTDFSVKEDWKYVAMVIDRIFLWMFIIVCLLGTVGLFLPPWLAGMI

[6] = target: Gamma-aminobutyric acid receptor subunit alpha-1 (Rattus norvegicus, UniProt P62813); type: functional
Sequence of Gamma-aminobutyric acid receptor subunit alpha-1 (P62813 whole entry): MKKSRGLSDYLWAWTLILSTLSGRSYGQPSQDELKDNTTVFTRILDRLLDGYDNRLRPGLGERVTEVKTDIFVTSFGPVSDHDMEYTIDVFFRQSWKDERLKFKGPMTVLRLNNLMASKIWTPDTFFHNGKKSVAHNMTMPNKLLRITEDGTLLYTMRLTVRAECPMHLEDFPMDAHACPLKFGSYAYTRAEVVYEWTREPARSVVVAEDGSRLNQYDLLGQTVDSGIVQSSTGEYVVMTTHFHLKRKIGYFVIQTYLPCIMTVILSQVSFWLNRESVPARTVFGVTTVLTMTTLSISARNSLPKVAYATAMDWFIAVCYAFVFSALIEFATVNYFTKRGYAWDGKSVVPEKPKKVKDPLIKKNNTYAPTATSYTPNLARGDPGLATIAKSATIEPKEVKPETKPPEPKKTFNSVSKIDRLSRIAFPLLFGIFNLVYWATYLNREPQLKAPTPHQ

[7] = target: Growth hormone secretagogue receptor type 1 (Homo sapiens, UniProt Q92847)
Sequence of Growth hormone secretagogue receptor type 1 (Q92847 whole entry): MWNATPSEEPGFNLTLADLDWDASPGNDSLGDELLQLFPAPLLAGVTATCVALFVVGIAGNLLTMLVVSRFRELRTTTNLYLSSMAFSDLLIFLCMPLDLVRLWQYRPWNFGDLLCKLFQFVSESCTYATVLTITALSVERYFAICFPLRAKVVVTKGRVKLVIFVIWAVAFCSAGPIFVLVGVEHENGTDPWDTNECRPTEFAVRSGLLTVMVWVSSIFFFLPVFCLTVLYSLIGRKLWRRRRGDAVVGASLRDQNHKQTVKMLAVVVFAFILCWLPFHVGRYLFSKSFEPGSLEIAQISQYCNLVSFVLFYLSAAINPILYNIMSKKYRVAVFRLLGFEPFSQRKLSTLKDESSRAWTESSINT

[8] = target: T5, 5-hydroxytryptamine receptor 3A (Homo sapiens, UniProt P46098); type: functional
T5 sequence (P46098 whole entry): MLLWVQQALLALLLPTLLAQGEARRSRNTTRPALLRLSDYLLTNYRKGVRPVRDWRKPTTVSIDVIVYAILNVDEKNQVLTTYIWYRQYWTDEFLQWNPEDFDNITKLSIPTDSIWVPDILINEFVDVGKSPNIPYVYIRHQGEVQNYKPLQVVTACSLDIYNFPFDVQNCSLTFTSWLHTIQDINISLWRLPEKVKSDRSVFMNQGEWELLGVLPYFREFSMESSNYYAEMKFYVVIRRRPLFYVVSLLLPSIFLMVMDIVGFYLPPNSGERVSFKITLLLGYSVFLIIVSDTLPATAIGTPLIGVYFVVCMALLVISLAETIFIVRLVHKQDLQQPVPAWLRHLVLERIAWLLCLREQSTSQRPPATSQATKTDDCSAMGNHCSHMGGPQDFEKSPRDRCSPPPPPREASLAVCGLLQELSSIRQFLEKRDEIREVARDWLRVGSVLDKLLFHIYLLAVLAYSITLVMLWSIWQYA

Melanocortin receptor 4 = Melanocortin receptor 4 (Homo sapiens, UniProt P32245)
Sequence of Melanocortin receptor 4 (P32245 whole entry): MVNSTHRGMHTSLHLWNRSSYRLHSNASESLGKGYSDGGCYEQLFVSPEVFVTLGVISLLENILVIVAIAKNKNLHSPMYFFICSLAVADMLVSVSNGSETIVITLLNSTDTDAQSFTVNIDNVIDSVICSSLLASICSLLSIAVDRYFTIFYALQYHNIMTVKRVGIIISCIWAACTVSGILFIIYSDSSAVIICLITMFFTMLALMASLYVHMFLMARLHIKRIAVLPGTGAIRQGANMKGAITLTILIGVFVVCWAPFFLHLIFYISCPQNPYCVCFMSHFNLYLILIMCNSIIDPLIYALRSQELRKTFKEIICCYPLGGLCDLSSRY

[9] = target: Delta-type opioid receptor (Homo sapiens, UniProt P41143)
Sequence of Delta-type opioid receptor (P41143 whole entry): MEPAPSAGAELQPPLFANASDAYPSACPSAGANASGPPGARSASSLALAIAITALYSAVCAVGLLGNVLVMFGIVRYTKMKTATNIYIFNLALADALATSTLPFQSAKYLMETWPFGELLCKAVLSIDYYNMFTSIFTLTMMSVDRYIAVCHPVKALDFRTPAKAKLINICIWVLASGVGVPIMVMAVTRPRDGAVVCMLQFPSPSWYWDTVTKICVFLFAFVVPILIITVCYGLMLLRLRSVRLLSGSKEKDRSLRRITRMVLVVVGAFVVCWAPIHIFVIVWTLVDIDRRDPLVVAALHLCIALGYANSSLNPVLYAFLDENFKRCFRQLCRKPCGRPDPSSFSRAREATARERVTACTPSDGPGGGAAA

[10] = target: Sodium-dependent dopamine transporter (Homo sapiens, UniProt Q01959)
Sequence of Sodium-dependent dopamine transporter (Q01959 whole entry): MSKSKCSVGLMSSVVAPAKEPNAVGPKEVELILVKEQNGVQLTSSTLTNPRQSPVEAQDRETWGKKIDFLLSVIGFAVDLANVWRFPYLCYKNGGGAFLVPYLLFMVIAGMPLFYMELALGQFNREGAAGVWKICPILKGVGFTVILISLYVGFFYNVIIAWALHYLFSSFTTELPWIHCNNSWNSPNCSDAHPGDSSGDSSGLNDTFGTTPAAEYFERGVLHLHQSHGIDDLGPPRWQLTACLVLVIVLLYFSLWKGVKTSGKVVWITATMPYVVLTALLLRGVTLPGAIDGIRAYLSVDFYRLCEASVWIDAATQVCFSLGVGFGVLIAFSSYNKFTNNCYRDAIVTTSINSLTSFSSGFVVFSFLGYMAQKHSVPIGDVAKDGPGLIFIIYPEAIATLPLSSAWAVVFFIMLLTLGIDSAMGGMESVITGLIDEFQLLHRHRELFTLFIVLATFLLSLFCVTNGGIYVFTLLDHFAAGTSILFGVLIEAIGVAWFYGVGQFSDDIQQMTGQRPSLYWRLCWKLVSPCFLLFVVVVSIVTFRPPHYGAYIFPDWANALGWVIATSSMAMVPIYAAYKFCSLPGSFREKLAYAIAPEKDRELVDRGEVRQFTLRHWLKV

[11] = target: Sodium-dependent noradrenaline transporter (Homo sapiens, UniProt P23975)
Sequence of Sodium-dependent noradrenaline transporter (P23975 whole entry): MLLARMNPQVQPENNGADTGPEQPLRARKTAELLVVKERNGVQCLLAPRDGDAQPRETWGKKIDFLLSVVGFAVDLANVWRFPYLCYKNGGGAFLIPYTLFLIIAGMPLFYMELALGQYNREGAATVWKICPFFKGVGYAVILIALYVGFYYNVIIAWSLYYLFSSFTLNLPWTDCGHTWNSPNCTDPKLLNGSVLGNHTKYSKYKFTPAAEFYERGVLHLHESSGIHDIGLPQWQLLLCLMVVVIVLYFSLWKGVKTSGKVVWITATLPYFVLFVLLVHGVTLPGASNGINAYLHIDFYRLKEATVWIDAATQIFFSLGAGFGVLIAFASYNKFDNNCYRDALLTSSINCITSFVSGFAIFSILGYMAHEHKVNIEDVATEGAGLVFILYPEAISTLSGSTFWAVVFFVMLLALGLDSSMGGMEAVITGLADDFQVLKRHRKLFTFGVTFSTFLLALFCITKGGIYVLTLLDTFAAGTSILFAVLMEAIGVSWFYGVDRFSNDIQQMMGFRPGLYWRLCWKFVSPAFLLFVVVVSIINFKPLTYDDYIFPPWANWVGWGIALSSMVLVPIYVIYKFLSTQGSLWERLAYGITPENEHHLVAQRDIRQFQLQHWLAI

Histamine H1 receptor = Histamine H1 receptor (Homo sapiens, UniProt P35367)
Sequence of Histamine H1 receptor (P35367 whole entry): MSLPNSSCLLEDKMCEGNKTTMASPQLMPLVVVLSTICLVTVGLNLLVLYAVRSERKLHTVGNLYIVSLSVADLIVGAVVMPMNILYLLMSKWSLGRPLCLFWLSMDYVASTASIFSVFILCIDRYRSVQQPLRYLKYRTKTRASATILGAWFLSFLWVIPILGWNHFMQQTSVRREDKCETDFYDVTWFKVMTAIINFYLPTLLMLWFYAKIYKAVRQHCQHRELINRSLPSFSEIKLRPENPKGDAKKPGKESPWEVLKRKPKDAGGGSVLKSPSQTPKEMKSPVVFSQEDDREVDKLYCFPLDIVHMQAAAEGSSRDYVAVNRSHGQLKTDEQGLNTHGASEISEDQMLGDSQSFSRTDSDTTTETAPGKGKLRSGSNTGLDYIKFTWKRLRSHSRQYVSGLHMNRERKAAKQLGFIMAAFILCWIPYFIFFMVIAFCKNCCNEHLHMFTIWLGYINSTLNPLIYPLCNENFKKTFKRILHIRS

[12] = target: 5-hydroxytryptamine receptor 2A (Homo sapiens, UniProt P28223); type: functional, cell-based
Sequence of 5-hydroxytryptamine receptor 2A (P28223 whole entry): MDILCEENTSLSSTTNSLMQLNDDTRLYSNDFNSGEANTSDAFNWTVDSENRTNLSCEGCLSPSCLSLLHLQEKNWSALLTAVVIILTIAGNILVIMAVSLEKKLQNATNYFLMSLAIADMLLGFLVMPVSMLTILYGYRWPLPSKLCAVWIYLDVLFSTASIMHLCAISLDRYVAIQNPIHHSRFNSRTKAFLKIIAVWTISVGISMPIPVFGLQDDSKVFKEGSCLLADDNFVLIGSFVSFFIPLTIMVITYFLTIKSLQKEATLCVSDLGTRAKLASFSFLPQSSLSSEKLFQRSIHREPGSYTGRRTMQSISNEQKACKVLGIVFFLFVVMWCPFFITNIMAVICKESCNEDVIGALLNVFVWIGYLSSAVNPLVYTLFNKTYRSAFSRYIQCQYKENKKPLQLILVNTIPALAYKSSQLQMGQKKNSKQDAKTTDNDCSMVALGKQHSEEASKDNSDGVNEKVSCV

[13] = target: Sodium-dependent serotonin transporter (Homo sapiens, UniProt P31645)
Sequence of Sodium-dependent serotonin transporter (P31645 whole entry): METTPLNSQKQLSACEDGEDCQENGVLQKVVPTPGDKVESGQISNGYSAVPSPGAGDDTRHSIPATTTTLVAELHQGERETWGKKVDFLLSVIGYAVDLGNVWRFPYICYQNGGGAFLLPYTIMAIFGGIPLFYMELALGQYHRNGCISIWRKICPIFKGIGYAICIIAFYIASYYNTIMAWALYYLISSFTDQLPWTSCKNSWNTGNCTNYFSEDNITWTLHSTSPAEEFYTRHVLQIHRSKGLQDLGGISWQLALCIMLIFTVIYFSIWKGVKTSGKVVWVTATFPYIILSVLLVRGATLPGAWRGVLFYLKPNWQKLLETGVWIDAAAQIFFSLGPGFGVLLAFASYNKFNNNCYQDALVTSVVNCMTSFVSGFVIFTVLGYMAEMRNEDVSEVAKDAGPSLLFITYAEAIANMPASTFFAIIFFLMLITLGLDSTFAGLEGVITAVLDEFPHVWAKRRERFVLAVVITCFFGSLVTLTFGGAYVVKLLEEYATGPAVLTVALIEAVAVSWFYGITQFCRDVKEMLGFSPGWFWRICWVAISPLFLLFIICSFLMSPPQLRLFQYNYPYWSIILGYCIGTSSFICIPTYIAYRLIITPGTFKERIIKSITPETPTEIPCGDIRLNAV
Also: assay procedure not described here.

Compound | AC50 [1] | AC50 [2] | AC50 [3] | AC50 [4] | AC50 [5] | AC50 [6] | AC50 [7] | AC50 [8] | AC50 (Melanocortin receptor 4) | AC50 [9] | AC50 [10] | AC50 [11] | AC50 (Histamine H1 receptor) | AC50 [12] | AC50 [13]
O=C1CN=C(c2ccccc2Cl)c2cc([N+](=O)[O-])ccc2N1 [CLONAZEPAM] | 11.9 µM | > 10 µM | > 30 µM | > 10 µM | > 10 µM | 0.0025 µM | > 30 µM | > 30 µM | > 30 µM | > 30 µM | > 10 µM | > 10 µM |  |  | 
Nc1ccc(S(=O)(=O)Nc2ncccn2)cc1 [SULFADIAZINE] | > 10 µM | > 10 µM | > 10 µM | > 10 µM | > 10 µM | > 10 µM | > 10 µM | > 30 µM | > 10 µM | > 30 µM | > 10 µM | > 10 µM |  |  | 
CC(=O)[C@@]1(O)CC[C@H]2[C@@H]3C[C@H](C)C4=CC(=O)C=C[C@]4(C)[C@@]3(F)[C@@H](O)C[C@@]21C [FLUOROMETHOLONE] | > 10 µM | > 10 µM | > 10 µM | > 10 µM | > 10 µM | > 10 µM | > 10 µM | > 30 µM | > 10 µM | > 30 µM | > 10 µM | > 10 µM |  |  | 
CCC(NC(C)C)C(O)c1ccc(O)c(O)c1 (stereo not drawn) [ISOETHARINE] | > 30 µM | > 30 µM | > 30 µM | > 30 µM | > 30 µM | > 30 µM | > 30 µM | > 30 µM |  | > 30 µM | 19.6 µM | > 30 µM | > 30 µM | > 30 µM | > 30 µM
CN1C2CCCC1CC(NC(=O)c1nn(C)c3ccccc13)C2 (stereo not drawn) [GRANISETRON] | > 10 µM | > 10 µM | > 30 µM | > 10 µM |  | > 10 µM | > 30 µM |  | > 30 µM | > 10 µM | > 10 µM | > 10 µM |  |  | 
CC(C)(C)NCC(O)COc1cccc2c1CC(O)C(O)C2 (stereo not drawn) [NADOLOL] | > 10 µM | > 10 µM | > 10 µM | > 10 µM | > 10 µM | > 10 µM | > 10 µM | > 30 µM | > 10 µM | > 30 µM | > 10 µM | > 10 µM |  |  | 
OCCN(CCO)c1nc(N2CCCCC2)c2nc(N(CCO)CCO)nc(N3CCCCC3)c2n1 [DIPYRIDAMOLE] | > 30 µM | > 10 µM | > 30 µM | > 30 µM |  | 1.4 µM | > 30 µM | > 30 µM | > 30 µM | > 30 µM | > 30 µM | > 30 µM |  |  | 
N=C(N)NC(=O)Cc1c(Cl)cccc1Cl [GUANFACINE] | 7.64 µM |  | > 30 µM | > 30 µM | > 10 µM | > 30 µM | > 30 µM | > 30 µM | > 30 µM | > 30 µM | > 30 µM | > 30 µM |  |  | 
CCOC(=O)C1=C(C)NC(C)=C(C(=O)OC)C1c1cccc(Cl)c1Cl (stereo not drawn) [FELODIPINE] | 13 µM | > 10 µM | 55.3 µM | > 10 µM | > 10 µM | > 10 µM | > 30 µM | > 10 µM | > 30 µM | > 10 µM | 13.3 µM | > 10 µM |  |  | 
Cc1cccc(Nc2ccncc2S(=O)(=O)NC(=O)NC(C)C)c1 [TORSEMIDE] | > 10 µM | > 10 µM | > 10 µM | > 10 µM | > 30 µM | > 10 µM | > 30 µM | > 30 µM | > 30 µM | > 30 µM | > 10 µM | > 10 µM |  |  | 
Nc1cc(N2CCCCC2)nc(N)[n+]1[O-] [MINOXIDIL] | > 10 µM | > 10 µM | > 30 µM | > 10 µM | > 10 µM | > 10 µM | > 30 µM | > 30 µM | > 30 µM | > 30 µM | > 30 µM | > 30 µM |  |  | 
CN1CCC(=C2c3ccccc3CC(=O)c3sccc32)CC1 [KETOTIFEN] | 10.4 µM | > 10 µM | > 10 µM | 1.9 µM | > 10 µM | > 10 µM | > 10 µM |  | > 10 µM | > 30 µM | > 10 µM | > 10 µM |  |  | 
COc1nc(C)nc(Cl)c1N=C1NCCN1 [MOXONIDINE] | > 30 µM |  | > 30 µM | > 30 µM | > 30 µM | > 30 µM | > 30 µM | > 30 µM |  | > 30 µM | > 30 µM |  |  |  | 
CC(=O)N1CCN(c2ccc(OCC3COC(Cn4ccnc4)(c4ccc(Cl)cc4Cl)O3)cc2)CC1 (stereo not drawn) [KETOCONAZOLE] | > 10 µM | > 10 µM | > 10 µM |  | > 10 µM | > 10 µM | > 10 µM | > 30 µM | > 10 µM | > 10 µM | > 30 µM | > 30 µM |  |  | 
CCc1ccc(C(=O)C(C)CN2CCCCC2)cc1 (stereo not drawn) [EPERISONE] | > 30 µM | > 30 µM | > 30 µM | 2.2 µM | > 30 µM | > 30 µM | > 30 µM | > 30 µM |  | 19 µM | > 30 µM | > 30 µM |  |  | 
CCN(C(C)=O)c1cccc(-c2ccnc3c(C#N)cnn23)c1 [ZALEPLON] | > 10 µM | > 10 µM | > 30 µM | > 10 µM | > 30 µM |  | > 30 µM | > 30 µM | > 30 µM | > 30 µM | > 30 µM | > 30 µM |  |  | 
